Tests used:
[1] = Ex vivo fluorescence and microPET imaging of dissected organs; assay type: in vivo, nude mouse; conditions: organs harvested after microPET scan 4 h post injection
Text: The dual modality operation of the probe was confirmed. To this end, the animal was euthanized and selected organs harvested for ex vivo fluorescence and microPET imaging (FIG. 4). The fluorescence images were obtained by irradiation of the organs at λ=500 nm. This wavelength was chosen because it falls within the absorption band of [2-F]^+ (see Supporting Information). The fluorescence image was reconstructed based on the emission intensity measured at λ=580±20 nm, a wavelength which is within the fluorescence band of [2-F]^+ (see Supporting Information).
(§1) Obvious bone uptake even at 3 h post injection was not observed, which is consistent with the reported high stability of BODIPY dyes. Next, the dual modality potential of the probe was confirmed. The animal was euthanized and liver, kidneys and muscle were harvested for ex vivo PET/fluorescence imaging. […] We also sectioned the kidney and observed the BODIPY fluorescent signal under microscope.
To cross-evaluate the dual modality tracer ^18F-2-F, ex vivo fluorescence imaging was performed using a Lumina II small-animal imaging system (Xenogen, Alameda, Calif.). After the microPET imaging was done, the nude mouse was sacrificed. […] Fluorescent images were acquired and analyzed using Living Image 2.5 software (Xenogen). The fluorescence images were acquired using a 2-s exposure time (f-stop 4).

[2] = In vivo microPET imaging of normal nude mice; conditions: judged from imaging results
Protocol: The stability of the resulting ^18F—B compound is critical as free [^18F]-fluoride ions could bind to the bones giving rise to unwanted and interfering background signals.^14 The stability of compound [^18F]-[2-F]^+ was first studied in PBS buffer at pH 7.5 over a period of several hours. […] In order to validate the approach for in vivo PET imaging, [^18F]-[2-F]^+ (prepared via the aqueous route) was injected into normal nude mice that were imaged using a microPET scanner 1 h, 2 h, and 4 h post injection. […] Thus, although probe compound [^18F]-[2-F]^+ lacks any specific targeting functionalities, its accumulation in these organs constitutes a normal phenomenon, in line with its hydrophobic and cationic nature.
as §1
The nude mice were imaged using a microPET R4 rodent model scanner (Concorde Microsystems, Knoxyille, Tenn.) in the prone position. The mice were injected with 50-80 μCi of [^18F]-[2-F]^+ via the tail vein. […]

- uptake in heart, representative bones and muscles, ex vivo [1]: minimal uptake
- stability in vivo [2]: stable in vivo
SMILES: CC1=CC(C)=[N+]2C1=C(c1ccc([N+](C)(C)C)cc1)c1c(C)cc(C)n1[B-]2(F)c1ccccc1 (stereo not drawn) [[2-F]^+]
- accumulation of the probe in organs, ex vivo microPET and fluorescence ([1]; excitation 500 nm, emission 580±20 nm): accumulation of the probe in the liver and kidneys

Reference: patent US20130189185A1, “Boron-Based Dual Imaging Probes, Compositions and Methods for Rapid Aqueous F-18 Labeling, and Imaging Methods Using Same” (UNIVERSITY OF SOUTHERN CALIFORNIA, priority 2011, published 2013)
